# Source: ChEMBL document CHEMBL4308841, “Synthesis, in vitro antiproliferative activity, and kinase inhibitory effects of pyrazole-containing diarylureas and diarylamides” (Eur J Med Chem, 2018)
# Tests used:
# HOP-62 = experiment: Growth inhibition of human HOP62 cells incubated for 48 hrs by sulforhodamine B assay; type: functional, cell-based; settings: HOP-62, 48 h
# NCI-H23 = experiment: Growth inhibition of human NCI-H23 cells incubated for 48 hrs by sulforhodamine B assay; type: functional, cell-based; settings: NCI-H23, 48 h
# HCT-15 = experiment: Growth inhibition of human HCT15 cells incubated for 48 hrs by sulforhodamine B assay; type: functional, cell-based; settings: HCT-15, 48 h
# SF-539 = experiment: Growth inhibition of human SF539 cells incubated for 48 hrs by sulforhodamine B assay; type: functional, cell-based; settings: SF-539, 48 h
# SK-MEL-2 [1] = experiment: Growth inhibition of human SK-MEL-2 cells incubated for 48 hrs by sulforhodamine B assay; type: functional, cell-based; settings: SK-MEL-2, 48 h
# SK-MEL-28 = experiment: Growth inhibition of human SK-MEL-28 cells incubated for 48 hrs by sulforhodamine B assay; type: functional, cell-based; settings: SK-MEL-28, 48 h
# UO-31 [2] = experiment: Growth inhibition of human UO31 cells incubated for 48 hrs by sulforhodamine B assay; type: functional, cell-based; settings: UO-31, 48 h
# MCF7 = experiment: Growth inhibition of human MCF7 cells incubated for 48 hrs by sulforhodamine B assay; type: functional, cell-based; settings: MCF7, 48 h
# SF-295 = experiment: Growth inhibition of human SF295 cells assessed as cell growth at 0.01 uM incubated for 48 hrs by sulforhodamine B assay relative to control; type: functional; settings: SF-295, 48 h, read-out: Activity
# Malme-3M [3] = experiment: Growth inhibition of human MALME-3M cells assessed as cell growth at 0.01 uM incubated for 48 hrs by sulforhodamine B assay relative to control; type: functional; settings: read-out: Activity
# OVCAR-3 [4] = experiment: Growth inhibition of human OVCAR3 cells assessed as cell growth at 0.01 uM incubated for 48 hrs by sulforhodamine B assay relative to control; type: functional; settings: OVCAR-3, 48 h, read-out: Activity
# OVCAR-5 = experiment: Growth inhibition of human OVCAR5 cells assessed as cell growth at 0.01 uM incubated for 48 hrs by sulforhodamine B assay relative to control; type: functional; settings: OVCAR-5, 48 h, read-out: Activity
# MDA-MB-231 [5] = experiment: Growth inhibition of human MDA-MB-231 cells assessed as cell growth at 0.01 uM incubated for 48 hrs by sulforhodamine B assay relative to control; type: functional; settings: MDA-MB-231, 48 h, read-out: Activity
# HCT-116 = experiment: Growth inhibition of human HCT116 cells assessed as cell growth at 0.1 uM incubated for 48 hrs by sulforhodamine B assay relative to control; type: functional; settings: HCT-116, 48 h, read-out: Activity
# SK-MEL-2 [6] = experiment: Growth inhibition of human SK-MEL-2 cells assessed as cell growth at 0.1 uM incubated for 48 hrs by sulforhodamine B assay relative to control; type: functional; settings: SK-MEL-2, 48 h, read-out: Activity
# UO-31 [7] = experiment: Growth inhibition of human UO31 cells assessed as cell growth at 0.1 uM incubated for 48 hrs by sulforhodamine B assay relative to control; type: functional; settings: UO-31, 48 h, read-out: Activity
# PC-3 = experiment: Growth inhibition of human PC3 cells assessed as cell growth at 0.1 uM incubated for 48 hrs by sulforhodamine B assay relative to control; type: functional; settings: PC-3, 48 h, read-out: Activity
# MDA-MB-231 [8] = experiment: Growth inhibition of human MDA-MB-231 cells assessed as cell growth at 0.1 uM incubated for 48 hrs by sulforhodamine B assay relative to control; type: functional; settings: MDA-MB-231, 48 h, read-out: Activity
# Hs-578T = experiment: Growth inhibition of human Hs578T cells assessed as cell growth at 0.1 uM incubated for 48 hrs by sulforhodamine B assay relative to control; type: functional; settings: read-out: Activity
# RPMI-8226 = experiment: Growth inhibition of human RPMI8226 cells assessed as cell growth at 1 uM incubated for 48 hrs by sulforhodamine B assay relative to control; type: functional; settings: RPMI-8226, 48 h, read-out: Activity
# OVCAR-3 [9] = experiment: Growth inhibition of human OVCAR3 cells assessed as cell growth at 1 uM incubated for 48 hrs by sulforhodamine B assay relative to control; type: functional; settings: OVCAR-3, 48 h, read-out: Activity
# ACHN = experiment: Growth inhibition of human ACHN cells assessed as cell growth at 1 uM incubated for 48 hrs by sulforhodamine B assay relative to control; type: functional; settings: read-out: Activity
# CCRF-CEM = experiment: Growth inhibition of human CCRF-CEM cells assessed as cell growth at 100 uM incubated for 48 hrs by sulforhodamine B assay relative to control; type: functional; settings: read-out: Activity
# A549 = experiment: Growth inhibition of human A549/ATCC cells assessed as cell growth at 100 uM incubated for 48 hrs by sulforhodamine B assay relative to control; type: functional; settings: A549, 48 h, read-out: Activity
# Malme-3M [10] = experiment: Growth inhibition of human MALME-3M cells assessed as cell growth at 100 uM incubated for 48 hrs by sulforhodamine B assay relative to control; type: functional; settings: read-out: Activity
# MDA-MB-435 = experiment: Growth inhibition of human MDA-MB-435 cells assessed as cell growth at 100 uM incubated for 48 hrs by sulforhodamine B assay relative to control; type: functional; settings: MDA-MB-435, 48 h, read-out: Activity
# SK-MEL-2 [11] = experiment: Growth inhibition of human SK-MEL-2 cells assessed as cell growth at 100 uM incubated for 48 hrs by sulforhodamine B assay relative to control; type: functional; settings: SK-MEL-2, 48 h, read-out: Activity
# UACC-257 = experiment: Growth inhibition of human UACC257 cells assessed as cell growth at 100 uM incubated for 48 hrs by sulforhodamine B assay relative to control; type: functional; settings: UACC-257, 48 h, read-out: Activity
# [12] = read-out: LC50 (the source's name)
# [13] = read-out: pLC50 (the source's name) (converted)
smiles,measurement,setting,value
COc1cc(Cl)cc(-c2nn(-c3cccc(NC(=O)Nc4cccc(C(F)(F)F)c4)c3)cc2-c2ccncc2)c1,GI50,HOP-62; read-out: GI50,2.51 µM
same,CC50,HOP-62; [12],> 100 µM
same,TGI,HOP-62; read-out: TGI,13.1 µM
same,GI50,HOP-62; read-out: pGI50 (converted),2.82 µM
same,CC50,HOP-62; [13],> 100 µM
same,TGI,HOP-62; read-out: pTGI (converted),13.2 µM
same,GI50,NCI-H23; read-out: GI50,1.76 µM
same,LC50,NCI-H23; read-out: LC50,> 100 µM
same,TGI,NCI-H23; read-out: TGI,55.9 µM
same,GI50,NCI-H23; read-out: pGI50 (converted),1.78 µM
same,LC50,NCI-H23; read-out: pLC50 (converted),> 100 µM
same,TGI,NCI-H23; read-out: pTGI (converted),6.76 µM
same,GI50,HCT-15; read-out: GI50,1.34 µM
same,CC50,HCT-15; [12],50 µM
same,TGI,HCT-15; read-out: TGI,10.6 µM
same,GI50,HCT-15; read-out: pGI50 (converted),1.35 µM
same,CC50,HCT-15; [13],50.1 µM
same,TGI,HCT-15; read-out: pTGI (converted),10.7 µM
same,GI50,SF-539; read-out: GI50,1 µM
same,CC50,SF-539; [12],21.1 µM
same,TGI,SF-539; read-out: TGI,45.2 µM
same,GI50,SF-539; read-out: pGI50 (converted),1.91 µM
same,CC50,SF-539; [13],21.4 µM
same,TGI,SF-539; read-out: pTGI (converted),4.79 µM
same,GI50,SK-MEL-2 [1]; read-out: GI50,1.29 µM
same,CC50,SK-MEL-2 [1]; [12],73.4 µM
same,TGI,SK-MEL-2 [1]; read-out: TGI,30.5 µM
same,GI50,SK-MEL-2 [1]; read-out: pGI50 (converted),1.29 µM
same,CC50,SK-MEL-2 [1]; [13],7.41 µM
same,TGI,SK-MEL-2 [1]; read-out: pTGI (converted),3.09 µM
same,GI50,SK-MEL-28; read-out: GI50,2.53 µM
same,CC50,SK-MEL-28; [12],> 100 µM
same,TGI,SK-MEL-28; read-out: TGI,12.1 µM
same,GI50,SK-MEL-28; read-out: pGI50 (converted),2.51 µM
same,CC50,SK-MEL-28; [13],> 100 µM
same,TGI,SK-MEL-28; read-out: pTGI (converted),12 µM
same,IC50,UO-31 [2],1.03 µM
same,GI50,UO-31 [2]; read-out: GI50,1.03 µM
same,CC50,UO-31 [2]; [12],> 100 µM
same,TGI,UO-31 [2]; read-out: TGI,77.5 µM
same,GI50,UO-31 [2]; read-out: pGI50 (converted),1.02 µM
same,CC50,UO-31 [2]; [13],> 100 µM
same,TGI,UO-31 [2]; read-out: pTGI (converted),7.76 µM
same,GI50,MCF7; read-out: GI50,1.48 µM
same,LC50,MCF7; read-out: LC50,> 100 µM
same,TGI,MCF7; read-out: TGI,75.7 µM
same,GI50,MCF7; read-out: pGI50 (converted),1.48 µM
same,LC50,MCF7; read-out: pLC50 (converted),> 100 µM
same,TGI,MCF7; read-out: pTGI (converted),7.59 µM
same,growth at 0.01 µM,SF-295,94%
same,growth at 0.01 µM,Malme-3M [3],95%
same,growth at 0.01 µM,OVCAR-3 [4],100%
same,growth at 0.01 µM,OVCAR-5,94%
same,growth at 0.01 µM,MDA-MB-231 [5],102%
same,growth at 0.1 µM,HCT-116,99%
same,growth at 0.1 µM,SK-MEL-2 [6],55%
same,growth at 0.1 µM,UO-31 [7],50%
same,growth at 0.1 µM,PC-3,57%
same,growth at 0.1 µM,MDA-MB-231 [8],103%
same,growth at 0.1 µM,Hs-578T,93%
same,growth at 1 µM,RPMI-8226,22%
same,growth at 1 µM,OVCAR-3 [9],38%
same,growth at 1 µM,ACHN,65%
same,growth at 100 µM,CCRF-CEM,-18%
same,growth at 100 µM,A549,-24%
same,growth at 100 µM,Malme-3M [10],-26%
same,growth at 100 µM,MDA-MB-435,-74%
same,growth at 100 µM,SK-MEL-2 [11],-68%
same,growth at 100 µM,UACC-257,-72%
